Data reported in US8143254B2, “Methods for modulating ion channels” (Cornell Research Foundation, Inc., priority 2005, dated 2012).

Biological target: T1, Kv4.2 (Homo sapiens, UniProt Q9NZV8)
T1 construct: expressed in transfected cells; host or cells: Xenopus laevis oocytes (cRNA injection, pRAT vector)
T1 sequence (Q9NZV8 1-630): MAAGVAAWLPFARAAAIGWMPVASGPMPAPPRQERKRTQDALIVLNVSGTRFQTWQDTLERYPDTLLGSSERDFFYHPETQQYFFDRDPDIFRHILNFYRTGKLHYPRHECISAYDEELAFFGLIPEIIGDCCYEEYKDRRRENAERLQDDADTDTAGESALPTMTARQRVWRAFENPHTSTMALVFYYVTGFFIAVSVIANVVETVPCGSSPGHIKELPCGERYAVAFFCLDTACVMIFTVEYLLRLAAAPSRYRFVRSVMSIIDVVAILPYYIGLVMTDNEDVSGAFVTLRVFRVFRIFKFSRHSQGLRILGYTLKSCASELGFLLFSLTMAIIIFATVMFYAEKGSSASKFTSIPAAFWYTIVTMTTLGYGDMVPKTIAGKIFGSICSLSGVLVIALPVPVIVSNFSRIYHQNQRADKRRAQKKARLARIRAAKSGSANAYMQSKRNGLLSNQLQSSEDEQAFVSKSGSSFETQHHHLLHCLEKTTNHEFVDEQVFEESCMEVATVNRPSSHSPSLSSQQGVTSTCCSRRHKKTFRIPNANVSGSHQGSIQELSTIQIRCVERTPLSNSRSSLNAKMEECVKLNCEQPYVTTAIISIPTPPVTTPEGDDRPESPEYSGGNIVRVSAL
Assay: TEVC of X. laevis oocytes expressing Kv4.2
Assay type: cell-based
Source text: Kv2.1 mutants were constructed using the QuickChange Multi Site-Directed Mutagenesis Kit (Stratagene, La Jolla, Calif.). Mutant Kv2.1 genes (in the pGA1 oocyte expression vector for oocyte expression) were sequenced in their entirety to confirm appropriate mutations and check for inadvertent mutations, and then subcloned into a wild-type pGA1 backbone. For oocyte expression, Kv3.4 was in pBF1, Kv4.2 was in pRAT. cRNA transcripts were produced from SacII-linearized (Kv2.1), Mlullinearized (Kv3.4) and Not1-linearized (Kv4.2) DNA templates using the T3 (Kv2.1), SP6 (Kv3.4) and T7 (Kv4.2) mMessage mMachine kits (Ambion, Austin, Tex.). cRNA was quantified by spectrophotometry and its size integrity verified by gel electophoresis. Defolliculated stage V and VI Xenopus laevis oocytes (purchased from Nasco, Grand Island, N.Y.) were injected with 5 ng of cRNA encoding Kv2.1, Kv3.4 or Kv4.2. Chinese Hamster Ovary (CHO) cells were transfected with 0.25 μg Kv2.1 cDNA, 2 μg blank plasmid and 2 μg Green fluorescent Protein in pBOB using Supetfect transfection reagent (Qiagen) 24 hours before whole-cell voltage clamp studies.
Whole-cell two-electrode voltage-clamp (TEVC) recordings were performed on X laevis oocytes expressing cloned Kv2.1, Kv3.4 or Kv4.2 using a Warner OC-725C amplifier and pClamp9 (Axon Instruments, Foster City, Calif.) software. Oocytes were bathed in a small-volume Warner oocyte bath and viewed with a Fisher dissection microscope. Bath solution for whole-cell oocyte recordings was (in mM): 96 NaCl, 4 KCl, 0.7 MgCl2, 1 CaCl2, 10 HEPES (pH 7.4); whole-cell oocyte TEVC pipettes were of 0.2-2 M resistance when filled with 3 M KCl. Experiments were performed 24-48 hours after cRNA injection. For assessment of current-voltage relationships in the absence or presence of dabco derivatives, oocytes were held at −80 mV, stepped for 2 seconds at voltages between −80 mV and +60 mV in 20 mV steps (Kv2.1) or between −80 and +50 mV in 10 mV steps (Kv3.4), then held for 500 ms at −40 mV before returning to the holding potential. […]

Q: Which “block of Kv4.2” value (100 μM) does the source give for `CCCCCCCCCCCC[N+]12CCN(CC1)CC2` [JE188, 1-aza-4-azonia-4-dodecylbicyclo[2.2.2]octane] here?
A: 3%

Q: How did the “block of Kv4.2” value (1 mM) turn out when `C(CCCC[N+]12CCN(CC1)CC2)CCC[N+]12CCN(CC1)CC2` [TG27, 1,8-[bis(4-aza-1-azoniabicyclo[2.2.2]octanyl)]octane] was run?
A: 3%

Q: How did the “block of Kv4.2” value (0.5 mM) turn out when `c1cc(C[N+]23CCN(CC2)CC3)ccc1C[N+]12CCN(CC1)CC2` [JC638.2α, α,α′-[bis(4-aza-1-azoniabicyclo[2.2.2]octanyl)]p-xylene] was run?
A: 38%
